Results: patent US11981702B2, “Compounds for fluorescence sensing of duplex formation” (San Diego State University Research Foundation, priority 2016, dated 2024)
Like-named read-outs stand apart in the source and are kept apart here. [8-DEA-tC] = 8-diethylamino tricyclic cytidine analogue (fluorescent), on 2'-deoxyribose

Key:
[1] = Quantum yield of fluorescence emission, comparative method of Williams et al., quinine sulfate standard (free nucleosides, single-stranded oligonucleotides); assay type: physicochemical; conditions: for ss Φem: single-stranded oligonucleotide, 1x PBS buffer pH 7.4
Experimental: (§1) Quantum yields of fluorescence emission were determined using the comparative method of Williams et. al. (Analyst 1983, 108, 1067) and a fluorescence standard of quinine sulfate in 0.1M H2SO4 (Table 1 and FIG. 2). The single-stranded oligonucleotides have quantum yields of fluorescence emission ranging from Φem=0.01-0.03, all brighter than the free 8-DEA-tC nucleoside by up to a factor of five. Addition of the complementary sequences and duplex formation results in further fluorescence increase in all sequences, up to Φem=0.12 for sequence GC. This quantum yield is 20-fold greater than that of the free 8-DEA-tC nucleoside, the largest such increase reported to date for a fluorescent nucleoside analogue.
(§2) All photophysical experiments were measured in a quartz sub-micro cuvette (10 mm path length) purchased from Starnacell Inc. Solutions were prepared in 1×PBS buffer at pH 7.4. Steady state emission scans were recorded using a PTI QuantaMaster QM-400 and absorbances were measured on a Shimadzu UV-1700 Pharmaspec spectrometer. Quantum yield measurements were performed the comparative method of Williams et. al. and measured in duplicate, at minimum.[7] Quinine sulfate in 0.1M H2SO4 was used as a reference standard for all photophysical measurements. Measurements by using a commercial sample of pyrrolo-dC to obtain a fluorescence quantum yield of 0.046, matching the value of 0.05 as reported by the Tor group were validated.[8] All measurements were taken with an absorbance range of 0.01-0.1. Subsequent dilutions were performed stepwise in order to obtain a minimum of five absorbance and emission spectra for quantum yield determinations. Representative data from these quantum yield measurements is plotted below. Quantum yield determinations were obtained using the following equation: […]
The determination of quantum yields for single-stranded oligonucleotides containing 8-DEA tC were calculated using the integrated emission intensity measurements of the single strand prior to the addition of the complementary strand, with the following equation. This method was validated by comparison with and confirmed with a SS quantum yield experiment.

complementary strand [2] = assay: Quantum yield of fluorescence emission of double-stranded oligonucleotides after adding complementary strand; assay type: physicochemical; conditions: for ds Φem: double-stranded oligonucleotide, 1x PBS buffer pH 7.4; for increase in fluorescent quantum yield in duplex DNA as compared with the free nucleoside: matched duplex, depending on neighboring bases
Experimental: as §1, §2
Samples of double-stranded oligonucleotides were prepared using a known concentration of single-stranded oligonucleotide and adding a total of 2.4 equivalents of complementary strand at room temperature. A single-strand absorbance and emission were taken prior to the addition of the first 1.2 equivalents of complementary strand for purposes of single-strand calculation and verification of hybridization. An additional 1.2 equivalent is added after the first double-strand to ensure that complete hybridization was achieved. Thermal annealing procedures had no effect on the measurements as expected, given that these sequences were chosen to have no competing, stable secondary structures.

[3] = UV/Vis absorption and steady state emission spectra; assay type: physicochemical; conditions: for ds λmax,abs / ds λmax,em: double-stranded; for ds λmax,abs / ds λmax,em / λmax,abs (ss) / λmax,em (ss): 1x PBS buffer pH 7.4; for λmax,abs (ss) / λmax,em (ss): single-stranded
Experimental: as §2
Normalized absorption and emission plots of single-stranded oligonucleotides and double-stranded oligonucleotides in 1×PBS buffer at pH 7.4 were determined accordingly.

complementary strand [4] = assay: CD melting temperature of oligonucleotide duplexes (ellipticity at 255 nm); assay type: physicochemical; conditions: for ΔTm: Tm for natural DNA duplex subtracted from Tm for the 8-DEA-tC-containing duplex; for Tm: duplex 5 μM in PBS pH 7.4
Experimental: UV CD spectra of oligonucleotide duplexes at a concentration of 5 μM in phosphate buffered saline (10 mM sodium phosphate, pH 7.4, […] potassium chloride, 137 mM sodium chloride) were collected at 25° C. in a 1 cm path length cell on an Aviv model 420 spectrophotometer equipped with a Peltier temperature controller. Background-subtracted spectra were smoothed and normalized to concentration using A260 nm as calculated from detector voltage using the following equation and converted to standard units. […] 255 nm was monitored from 15° C. to 75° C. at 1° C. increments. The TM of each duplex was calculated by fitting the raw data to a two-state model in Igor Pro. Melting curves are reported as fraction unfolded.

[5] = value reported by the Tor group; cited from earlier work
[6] = Viscosity sensitivity of fluorescence in methanol-glycerol mixtures; assay type: physicochemical; conditions: 25° C.
Description: It was hypothesized that the C—N bond appending the diethylamino group to tC may provide a molecular rotor effect, enabling non-emissive relaxation coupled to conformational change at the excited state. […] For this reason, it was hypothesized that slowed water dynamics in the major groove of the duplex could cause an increase in the fluorescence of 8-DEA-tC. To test this hypothesis, a comparison of the solvent viscosity sensitivity of fluorescence of the 8-DEA-tC nucleoside with parent tC and 9-(2,2-dicyanovinyl)julolidine (DCVJ, a frequently used reference compound for viscosity effects on fluorescence) using mixtures of glycerol and methanol was performed (see Examples section below).
The responsiveness of (8-DEA)tC, tC, and 9-(2,2-dicyanovinyl)julolidine (DCVJ) to viscosity changes using binary methanol-glycerol mixtures was determined.
Molecular rotors are known to have fluorescent properties that are dependent on the medium viscosity, the fluorescence spectra of parent tC and (8-DEA)tC were examined in methanol-glycerol mixtures ranging from 0 to 100% methanol in glycerol at 25° C. […]
A calibration plot of fluorescence intensity (I) versus viscosity (η) were constructed using the Foster-Hoffman equation ΦF=zη^α, relating the fluorescence quantum yield (ΦF) as a function of viscosity (η) and fluorophore and solvent-specific constants (z, α).

DNA-RNA heteroduplex = assay: Fluorescence turn-on response in DNA-RNA heteroduplex; assay type: physicochemical; conditions: 1x PBS buffer at pH 7.4
Description: The RNA version (Y═OH) has been synthesized and characterized. […] The shape (conformation) of double-stranded nucleic acids can vary, and there are three major forms: A, B, and Z. Double-stranded DNA is naturally B form. Double-stranded RNA is naturally A form. And a DNA-RNA heteroduplex also naturally takes A form. For that reason, it is possible to use a DNA-RNA heteroduplex to predict fluorescence properties in pure RNA.

[7] = Stern-Volmer analysis of chloride quenching; assay type: physicochemical; conditions: 0 mM to 180 mM NaCl
Experimental: To test the ability of the duplex to attenuate chloride quenching of 8-DEA-tC, a Stern-Volmer analysis was performed using the 8-DEA-tC nucleoside and the TT duplex oligonucleotide (see Examples section below). […] In contrast, chloride has a modest quenching effect on 8-DEA-tC when present in the matched TT duplex.
In order to assess the magnitude that chloride, present in our buffers, would quench the fluorescent cytidine analogues, a Stern-Volmer analysis was performed spanning from 0 mM NaCl to 180 mM NaCl to mimic the environment of the 1XPBS buffer used in the fluorescence measurements of the oligomers.
A solution fluorophore was prepared and a known volumes of a 0.5 M NaCl solution were titrated in and the resulting fluorescence change was measured. The dilution factor was taken into account when calculating integrated fluorescence intensity.

[8] = Quantum yield of fluorescence emission, comparative method of Williams et al., quinine sulfate standard (free nucleosides, single-stranded oligonucleotides); assay type: physicochemical; conditions: free nucleoside, 1,4-dioxane
[9] = UV/Vis absorption and steady state emission spectra; assay type: physicochemical; conditions: free nucleoside, 1,4-dioxane
matching complement = assay: Visual discrimination of single nucleotide mismatch under hand-held UV lamp; assay type: physicochemical; conditions: 0.26 mM in 0.5X PBS buffer, versus oligo alone and mismatch duplex
Experimental: Next, the ability of 8-DEA-tC to distinguish single nucleotide by a visible fluorescence response was tested (FIG. 5). 0.26 mM solutions of GC oligo in 0.5X PBS buffer were prepared with the GC oligo alone, a duplex with the matching complement, and a duplex with an 8-DEA-tC mismatch.

Molecule | ss Φem [1] | ds Φem (complementary strand [2]) | ds λmax,abs [3] | ds λmax,em [3] | λmax,abs (ss) [3] | λmax,em (ss) [3] | ΔTm (complementary strand [4]) | Tm (complementary strand [4]) | also measured
CA: 5′-CGC-ACX-ATC-G-3′ (SEQ ID NO: 13), X = 8-DEA-tC (DNA CGCACCATCG; DNA, [8-DEA-tC] at 6, backbone not given here) | 0.014 | 0.017 | 410 nm | 494 nm | 420 nm | 493 nm | +2.1 °C | 57.4 °C | 
GA: 5′-CGC-AGX-ATC-G-3′ (SEQ ID NO: 10), X = 8-DEA-tC (DNA CGCAGCATCG; DNA, [8-DEA-tC] at 6, backbone not given here) | 0.020 | 0.050 | 422 nm | 499(499) nm | 425 nm | 499(499) nm | -5.1 °C | 50.7 °C | 
Cc1cc2cn([C@H]3C[C@H](O)[C@@H](CO)O3)c(=O)nc2[nH]1 [pyrrolo-dC, reference compound] |  |  |  |  |  |  |  |  | fluorescence quantum yield ([1]; commercial sample, method validation): 0.046; fluorescence quantum yield [5]: 0.05
N#CC(C#N)=Cc1cc2c3c(c1)CCCN3CCC2 [DCVJ, 9-(2,2-dicyanovinyl)julolidine, reference compound] |  |  |  |  |  |  |  |  | response of fluorescence intensity to viscosity [6]: three-fold greater
GG: 5′-CGC-AGX-GTC-G-3′ (SEQ ID NO: 14), X = 8-DEA-tC (DNA CGCAGCGTCG; DNA, [8-DEA-tC] at 6, backbone not given here) | 0.027 | 0.056 | 400 nm | 499 nm | 415 nm | 498 nm | -7.0 °C | 58.2 °C | 
CC: 5′-CGC-ACX-CTC-G-3′ (SEQ ID NO: 15), X = 8-DEA-tC (DNA CGCACCCTCG; DNA, [8-DEA-tC] at 6, backbone not given here) | 0.013 | 0.024 | 413 nm | 496 (496) nm | 421 nm | 496 (496) nm | +6.7 °C | 60.2 °C | 
TA: 5′-CGC-ATX-ATC-G-3′ (SEQ ID NO: 16), X = 8-DEA-tC (DNA CGCATCATCG; DNA, [8-DEA-tC] at 6, backbone not given here) | 0.014 | 0.026 | 420 nm | 495 (495) nm | 417 nm | 495 (495) nm | -1.6 °C | 48.7 °C | 
AA: 5′-CGC-AAX-ATC-G-3′ (SEQ ID NO: 18), X = 8-DEA-tC (DNA CGCAACATCG; DNA, [8-DEA-tC] at 6, backbone not given here) | 0.008 | 0.042 | 410 nm | 498 nm | 415 nm | 497 nm | -2.6 °C | 48.4 °C | fluorescence turn-on effect in DNA-RNA heteroduplex relative to double-stranded DNA (DNA-RNA heteroduplex): at least three times better
CCN(CC)c1ccc2c(c1)Nc1nc(=O)n([C@H]3CC(O)[C@@H](CO)O3)cc1S2 (stereo partly drawn) [8-DEA-tC, 8-Diethylamino-tricyclic-2′-deoxy-β-D-ribonucleoside] |  |  |  |  |  |  |  |  | sensitivity to quenching by protic solvent relative to parent tC [1]: approximately twice as sensitive; Φem in deuterated buffer ([1]; deuterated 1X PBS buffer): 0.012; Φem ([1]; free nucleoside, 1x PBS buffer): 0.006; increase of Φem on solvent change ([1]; free nucleoside, 1x PBS buffer to 1,4-dioxane): 10 fold; increase in Φem when mispaired with A (complementary strand [2]; 8-DEA-tC opposite A in duplex): less than 2 fold; Φem opposite an abasic site (complementary strand [2]; 8-DEA-tC opposite abasic site (dSpacer) in duplex): effectively the same as for the free nucleoside; increase in fluorescent quantum yield in duplex DNA as compared with the free nucleoside (complementary strand [2]): ≤ 20 fold; ε ([3]; free nucleoside, 1x PBS buffer): 2700 M⁻¹ cm⁻¹; λmax,abs ([3]; free nucleoside, 1x PBS buffer): 395 nm; λmax,em ([3]; free nucleoside, 1x PBS buffer): 493 nm; effect of chloride on fluorescence [7]: more fluorescent with increasing chloride concentration; response of fluorescence intensity to viscosity [6]: positively correlated to viscosity; Φem [8]: 0.06; λmax,abs [9]: 389 nm; λmax,em [9]: 524 nm
GC: 5′-CGC-AGX-CTC-G-3′ (SEQ ID NO: 12), X = 8-DEA-tC (DNA CGCAGCCTCG; DNA, [8-DEA-tC] at 6, backbone not given here) | 0.032 | 0.12 | 348 nm | 500 nm | 425 nm | 499 nm | -14.5 °C | 49.1 °C | increase in fluorescent quantum yield in duplex DNA as compared with the free nucleoside (complementary strand [2]): 20 fold; visible fluorescence response of matched duplex (matching complement): large increase in fluorescence
